Test results: ChEMBL document CHEMBL6074667, “Discovery and Optimization of First-in-Class Molecular Glue Degraders of the WIZ Transcription Factor for Fetal Hemoglobin Induction to Treat Sickle Cell Disease” (J Med Chem, 2024)
pEC50: −log10 of the molar value. Values after ≈ are worked out from the molar mass of the structure shown. Active and inactive are the calls of the source. The rule behind the calls is not given here.

How the values were obtained:
[1] = target: T1, Protein cereblon/Protein Wiz (Homo sapiens, UniProt Q96SW2+O95785); experiment: Molecular glue activity at CRBN/WIZ in human CD34-positive derived primary erythroblast cells assessed as induction of WIZ degradation by measuring maximal efficacy measured after 24 hrs by flow cytometric analysis relative to control; type: cell-based
Target sequence in this assay (O95785 whole entry, looked up): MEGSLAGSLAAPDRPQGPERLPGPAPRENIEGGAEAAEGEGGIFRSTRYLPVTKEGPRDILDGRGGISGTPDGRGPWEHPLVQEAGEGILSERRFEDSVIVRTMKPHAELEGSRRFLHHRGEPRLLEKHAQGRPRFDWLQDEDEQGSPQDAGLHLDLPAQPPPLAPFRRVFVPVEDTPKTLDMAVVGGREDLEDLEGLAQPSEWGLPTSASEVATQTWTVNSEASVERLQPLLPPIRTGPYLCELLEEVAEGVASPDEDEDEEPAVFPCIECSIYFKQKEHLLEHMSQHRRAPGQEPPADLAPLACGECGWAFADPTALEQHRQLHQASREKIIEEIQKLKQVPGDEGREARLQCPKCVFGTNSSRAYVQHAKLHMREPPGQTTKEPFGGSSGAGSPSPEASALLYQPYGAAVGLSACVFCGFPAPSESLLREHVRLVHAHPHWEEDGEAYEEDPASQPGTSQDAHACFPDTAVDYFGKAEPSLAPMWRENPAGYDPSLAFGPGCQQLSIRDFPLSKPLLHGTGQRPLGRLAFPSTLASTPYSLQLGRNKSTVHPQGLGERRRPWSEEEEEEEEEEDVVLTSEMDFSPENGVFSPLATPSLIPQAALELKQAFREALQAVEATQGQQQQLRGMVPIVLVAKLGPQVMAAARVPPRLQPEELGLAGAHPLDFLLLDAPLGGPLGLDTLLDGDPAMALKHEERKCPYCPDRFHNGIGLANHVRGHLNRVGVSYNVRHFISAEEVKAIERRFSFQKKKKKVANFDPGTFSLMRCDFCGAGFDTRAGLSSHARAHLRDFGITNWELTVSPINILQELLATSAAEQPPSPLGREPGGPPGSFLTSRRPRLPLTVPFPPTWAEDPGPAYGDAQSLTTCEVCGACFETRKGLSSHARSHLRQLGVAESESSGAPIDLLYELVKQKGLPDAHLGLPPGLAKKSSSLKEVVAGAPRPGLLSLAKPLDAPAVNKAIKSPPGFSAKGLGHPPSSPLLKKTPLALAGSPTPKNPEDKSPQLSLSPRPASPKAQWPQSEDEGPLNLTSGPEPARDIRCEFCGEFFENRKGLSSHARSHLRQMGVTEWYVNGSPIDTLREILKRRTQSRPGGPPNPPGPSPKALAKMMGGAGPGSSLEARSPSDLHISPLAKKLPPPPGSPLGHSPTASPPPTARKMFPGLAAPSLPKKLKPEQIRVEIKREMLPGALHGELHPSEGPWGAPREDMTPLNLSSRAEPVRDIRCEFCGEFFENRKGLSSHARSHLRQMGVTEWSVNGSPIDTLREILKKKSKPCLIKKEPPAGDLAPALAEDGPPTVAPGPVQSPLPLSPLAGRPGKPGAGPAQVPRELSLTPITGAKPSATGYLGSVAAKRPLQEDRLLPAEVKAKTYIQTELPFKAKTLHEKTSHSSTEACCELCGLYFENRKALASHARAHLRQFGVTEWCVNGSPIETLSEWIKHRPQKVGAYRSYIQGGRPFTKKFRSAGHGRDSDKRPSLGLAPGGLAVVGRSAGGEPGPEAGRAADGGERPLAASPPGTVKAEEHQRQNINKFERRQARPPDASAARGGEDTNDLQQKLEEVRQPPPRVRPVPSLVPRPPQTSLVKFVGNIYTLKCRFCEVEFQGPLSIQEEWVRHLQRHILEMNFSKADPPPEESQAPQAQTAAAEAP
Target sequence in this assay (Q96SW2 whole entry, looked up): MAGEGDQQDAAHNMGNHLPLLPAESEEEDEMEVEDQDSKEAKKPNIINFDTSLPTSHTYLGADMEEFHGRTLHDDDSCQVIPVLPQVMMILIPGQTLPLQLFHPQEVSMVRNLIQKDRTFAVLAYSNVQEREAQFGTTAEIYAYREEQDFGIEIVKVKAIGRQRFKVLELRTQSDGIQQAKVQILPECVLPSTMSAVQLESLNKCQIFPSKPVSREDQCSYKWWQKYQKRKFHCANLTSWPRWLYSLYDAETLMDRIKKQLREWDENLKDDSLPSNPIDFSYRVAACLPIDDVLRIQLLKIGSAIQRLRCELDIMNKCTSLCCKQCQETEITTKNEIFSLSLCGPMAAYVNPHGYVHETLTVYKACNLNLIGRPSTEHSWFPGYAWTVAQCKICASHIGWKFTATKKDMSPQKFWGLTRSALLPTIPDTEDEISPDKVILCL

Cereblon/Ikaros [2] = target: T2, Cereblon/Ikaros (Homo sapiens, UniProt Q96SW2+Q13422); experiment: Molecular glue activity at CRBN/HiBiT-tagged IKZF1 (unknown origin) expressed in human GripTite 293 MSR cells assessed as induction of […] incubated for 20 hrs by Nano-Glo HiBiT-Lytic reagent based luminescence plate reader analysis relative to control; type: cell-based; design: concentration or dose not given beside the values
[3] = target: T1, Protein cereblon/Protein Wiz; experiment: Molecular glue activity at CRBN/HiBiT-tagged WIZ (unknown origin) expressed in HEK293T cells assessed as induction of WIZ degradation incubated for 18 hrs by Nano-Glo HiBiT-Lytic reagent based luminescence plate reader analysis relative to control; type: cell-based; design: concentration or dose not given beside the values
Target sequence in this assay (O95785 whole entry, looked up): as the sequence (O95785 whole entry, looked up) above
Target sequence in this assay (Q96SW2 whole entry, looked up): as the sequence (Q96SW2 whole entry, looked up) above

[4] = target: T3, Protein cereblon/Sal-like protein 4 (Homo sapiens, UniProt Q96SW2+Q9UJQ4); experiment: Molecular glue activity at CRBN/HiBiT-tagged SALL4 (unknown origin) expressed in human GripTite 293 MSR cells assessed as induction of SALL4 degradation incubated for 20 hrs by Nano-Glo HiBiT-Lytic reagent based luminescence plate reader analysis relative to control; type: cell-based; design: concentration or dose not given beside the values
Target sequence in this assay (Q96SW2 whole entry, looked up): as above
Target sequence in this assay (Q9UJQ4 whole entry, looked up): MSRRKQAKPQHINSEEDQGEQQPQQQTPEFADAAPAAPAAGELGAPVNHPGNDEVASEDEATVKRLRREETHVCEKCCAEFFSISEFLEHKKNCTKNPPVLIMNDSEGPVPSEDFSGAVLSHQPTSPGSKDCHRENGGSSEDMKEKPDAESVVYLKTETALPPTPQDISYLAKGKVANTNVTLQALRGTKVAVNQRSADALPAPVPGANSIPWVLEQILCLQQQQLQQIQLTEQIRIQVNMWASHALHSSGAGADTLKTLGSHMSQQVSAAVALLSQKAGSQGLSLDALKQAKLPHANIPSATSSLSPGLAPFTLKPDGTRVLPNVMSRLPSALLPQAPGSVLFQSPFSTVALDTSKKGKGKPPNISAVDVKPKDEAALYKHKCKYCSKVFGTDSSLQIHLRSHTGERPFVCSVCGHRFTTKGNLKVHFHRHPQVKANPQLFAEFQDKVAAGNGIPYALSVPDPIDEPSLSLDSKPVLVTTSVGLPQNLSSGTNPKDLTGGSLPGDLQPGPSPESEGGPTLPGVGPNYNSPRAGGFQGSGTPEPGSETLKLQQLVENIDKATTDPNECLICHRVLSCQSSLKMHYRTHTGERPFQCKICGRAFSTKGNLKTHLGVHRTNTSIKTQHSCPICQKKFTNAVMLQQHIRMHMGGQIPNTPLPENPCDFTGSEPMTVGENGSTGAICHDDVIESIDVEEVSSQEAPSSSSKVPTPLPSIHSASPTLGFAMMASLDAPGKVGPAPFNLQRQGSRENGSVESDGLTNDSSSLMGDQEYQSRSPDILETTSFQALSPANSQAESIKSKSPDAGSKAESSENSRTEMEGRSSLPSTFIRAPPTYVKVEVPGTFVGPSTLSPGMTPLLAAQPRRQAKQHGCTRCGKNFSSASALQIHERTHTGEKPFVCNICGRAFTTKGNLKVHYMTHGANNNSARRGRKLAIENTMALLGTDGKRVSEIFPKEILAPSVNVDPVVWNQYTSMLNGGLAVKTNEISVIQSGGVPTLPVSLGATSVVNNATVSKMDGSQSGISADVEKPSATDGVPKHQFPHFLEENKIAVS

[5] = target: T4, Protein cereblon/Eukaryotic peptide chain release factor GTP-binding subunit ERF3A (Homo sapiens, UniProt Q96SW2+P15170); experiment: Molecular glue activity at CRBN/HiBiT-tagged GSPT1 (unknown origin) expressed in human GripTite 293 MSR cells assessed as induction of GSPT1 degradation incubated for 20 hrs by Nano-Glo HiBiT-Lytic reagent based luminescence plate reader analysis relative to control; type: cell-based; design: concentration or dose not given beside the values
[6] = target: T1, Protein cereblon/Protein Wiz; experiment: In vivo molecular glue activity at CRBN/WIZ in immunocompromised naive NBSGW mouse xenografted with human CD34 positive HSPC cells assessed as induction of WIZ degradation in peripheral blood human C19-positive B cells by measuring maximal efficacy at 0.01 to 1 mg/kg, po administered once daily for 21 days by staining based analysis relative to control; type: functional, organism-based; conditions: dose 0.01-1 mg/kg, time 21.0 day
Target sequence in this assay (O95785 whole entry, looked up): as the sequence (O95785 whole entry, looked up) above
Target sequence in this assay (Q96SW2 whole entry, looked up): as the sequence (Q96SW2 whole entry, looked up) above

[7] = target: T1, Protein cereblon/Protein Wiz; experiment: In vivo molecular glue activity at CRBN/WIZ in immunocompromised naive NBSGW mouse xenografted with human CD34 positive HSPC cells assessed as fold increase in Hbf-positive cells in moCD45 negative hCD45negative CD71positive CD235A positive bone marrow cells at 0.01 to 1 mg/kg, po administered once daily for 21 days by staining based analysis; type: functional, organism-based; conditions: dose 0.01-1 mg/kg, time 21.0 day
Target sequence in this assay (O95785 whole entry, looked up): as the sequence (O95785 whole entry, looked up) above
Target sequence in this assay (Q96SW2 whole entry, looked up): as the sequence (Q96SW2 whole entry, looked up) above

[8] = target: T1, Protein cereblon/Protein Wiz; experiment: Molecular glue activity at CRBN/WIZ in human CD34-positive derived primary erythroblast cells assessed as increase in fetal hemoglobin positive cells in CD71+ CD235a+ subpopulation measured after 7 days by flow cytometric analysis relative to control; type: cell-based; conditions: time 7.0 day
Target sequence in this assay (O95785 whole entry, looked up): as the sequence (O95785 whole entry, looked up) above
Target sequence in this assay (Q96SW2 whole entry, looked up): as the sequence (Q96SW2 whole entry, looked up) above

[9] = target: T1, Protein cereblon/Protein Wiz; experiment: In vivo molecular glue activity at CRBN/WIZ in immunocompromised naive NBSGW mouse xenografted with human CD34 positive HSPC cells assessed as induction of WIZ degradation in peripheral blood human […] B cells administered orally once daily for 21 days by staining based analysis; type: functional, organism-based; conditions: route po, time 21.0 day
Target sequence in this assay (O95785 whole entry, looked up): as the sequence (O95785 whole entry, looked up) above
Target sequence in this assay (Q96SW2 whole entry, looked up): as the sequence (Q96SW2 whole entry, looked up) above

[10] = Apparent permeability across apical to basolateral side in low efflux MDCK cells at 10 uM incubated for 2 hrs by LC-MS analysis; type: ADME, cell-based, Canis lupus familiaris; conditions: dog
[11] = Apparent permeability across apical to basolateral side in low efflux MDCK cells assessed as drug recovery at 10 uM incubated for 2 hrs by LC-MS analysis; type: ADME, cell-based, Canis lupus familiaris; conditions: dog, read-out: Drug recovery
[12] = Cmax in C57BL/6 mouse at 3 mg/kg, po; type: ADME, organism-based; conditions: in vivo
[13] = Volume of distribution at steady state in C57BL/6 mouse at 1 mg/kg, iv; type: ADME, organism-based; conditions: in vivo, read-out: Vdss
[14] = Protein binding in mouse plasma; type: ADME, cell-free; conditions: read-out: PPB (converted)
[15] = target: T1, Protein cereblon/Protein Wiz; experiment: Molecular glue activity at CRBN/WIZ in human CD34-positive derived primary erythroblast cells assessed as induction of WIZ degradation measured after 24 hrs by flow cytometric analysis; type: cell-based
[16] = Solubility of compound in potassium phosphate buffer at pH 6.8 incubated for 16 to 24 hrs by high-throughput Agilent Rapidfire-MS/MS analysis; type: physicochemical; conditions: time 16-24 hrs
[17] = Intrinsic clearance in human liver microsomes; type: ADME, Microsome; conditions: read-out: CLH
[18] = target: Protein cereblon/Protein Wiz (Homo sapiens, UniProt O95785+Q96SW2); experiment: Molecular glue activity at CRBN/WIZ in human CD34-positive derived primary erythroblast cells assessed as increase in fetal hemoglobin positive cells in CD71+ CD235a+ subpopulation measured after 7 days by flow cytometric analysis; type: cell-based
[19] = Protein binding in human plasma; type: ADME, cell-free; conditions: read-out: PPB (converted)
Cereblon/Ikaros [20] = target: T2, Cereblon/Ikaros; experiment: Molecular glue activity at CRBN/HiBiT-tagged IKZF1 (unknown origin) expressed in human GripTite 293 MSR cells assessed as induction of […] incubated for 20 hrs by Nano-Glo HiBiT-Lytic reagent based luminescence plate reader analysis; type: cell-based
[21] = Protein binding in rat plasma; type: ADME, cell-free; conditions: read-out: PPB (converted)
[22] = Intrinsic clearance in rat liver microsomes; type: ADME, Microsome; conditions: read-out: CLH
[23] = Clearance in C57BL/6 mouse at 1 mg/kg, iv; type: ADME, organism-based; conditions: in vivo
[24] = target: T4, Protein cereblon/Eukaryotic peptide chain release factor GTP-binding subunit ERF3A; experiment: Molecular glue activity at CRBN/HiBiT-tagged GSPT1 (unknown origin) expressed in human GripTite 293 MSR cells assessed as induction of GSPT1 degradation incubated for 20 hrs by Nano-Glo HiBiT-Lytic reagent based luminescence plate reader analysis; type: cell-based
[25] = Bioavailability last in C57BL/6 mouse; type: ADME, organism-based; conditions: in vivo
[26] = Intrinsic clearance in mouse liver microsomes; type: ADME, Microsome; conditions: read-out: CLH
[27] = target: T1, Protein cereblon/Protein Wiz; experiment: Molecular glue activity at CRBN/HiBiT-tagged WIZ (unknown origin) expressed in HEK293T cells assessed as induction of WIZ degradation incubated for 18 hrs by Nano-Glo HiBiT-Lytic reagent based luminescence plate reader analysis; type: cell-based
[28] = target: T3, Protein cereblon/Sal-like protein 4; experiment: Molecular glue activity at CRBN/HiBiT-tagged SALL4 (unknown origin) expressed in human GripTite 293 MSR cells assessed as induction of SALL4 degradation incubated for 20 hrs by Nano-Glo HiBiT-Lytic reagent based luminescence plate reader analysis; type: cell-based
[29] = AUClast in C57BL/6 mouse at 3 mg/kg, po; type: ADME, organism-based; conditions: in vivo
[30] = Tmax in C57BL/6 mouse at 3 mg/kg, po or 1 mg/kg, iv; type: ADME, organism-based; conditions: in vivo
[31] = Half-life in C57BL/6 mouse at 1 mg/kg, iv; type: ADME, organism-based; conditions: in vivo
[32] = Toxicity in immunocompromised naive NBSGW mouse xenografted with human CD34 positive HSPC cells assessed as effect on body weight at 0.01 to 1 mg/kg, po administered once daily for 21 days; type: organism-based; conditions: in vivo, 504 h, dose 0.01-1 mg/kg, time 21 day
[33] = target: T1, Protein cereblon/Protein Wiz; experiment: Molecular glue activity at CRBN/WIZ in human CD34-positive derived primary erythroblast assessed as induction fetal hemoglobin by flow cytometric analysis; type: cell-based
[34] = target: T1, Protein cereblon/Protein Wiz; experiment: Molecular glue activity at CRBN/WIZ in human CD34-positive derived primary erythroblast assessed as induction of WIZ degradation by flow cytometric analysis; type: cell-based

T2 sequence (Q96SW2 whole entry): as the sequence (Q96SW2 whole entry, looked up) above
T2 sequence (Q13422 whole entry): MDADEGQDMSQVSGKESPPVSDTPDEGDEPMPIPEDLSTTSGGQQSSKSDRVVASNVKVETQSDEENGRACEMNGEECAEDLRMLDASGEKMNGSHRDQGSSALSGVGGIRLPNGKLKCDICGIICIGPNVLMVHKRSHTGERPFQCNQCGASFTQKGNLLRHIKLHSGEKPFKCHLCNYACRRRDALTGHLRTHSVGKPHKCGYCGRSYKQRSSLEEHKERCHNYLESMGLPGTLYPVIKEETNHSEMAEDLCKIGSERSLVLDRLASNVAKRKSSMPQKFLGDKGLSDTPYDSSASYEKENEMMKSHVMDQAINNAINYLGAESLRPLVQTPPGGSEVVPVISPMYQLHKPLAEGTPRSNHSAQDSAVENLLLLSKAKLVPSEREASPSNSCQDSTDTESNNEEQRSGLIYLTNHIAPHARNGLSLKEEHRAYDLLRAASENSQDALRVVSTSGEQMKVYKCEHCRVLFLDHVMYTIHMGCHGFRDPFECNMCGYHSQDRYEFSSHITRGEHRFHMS

| SMILES | Activity (Cereblon/Ikaros [2]) [%] | Activity [3] [%] | Activity [4] [%] | Activity [5] [%] | DC50 (Cereblon/Ikaros [20]) [µM] | DC50 [24] [µM] | DC50 [27] [µM] | DC50 [28] [µM] | other results |
| --- | --- | --- | --- | --- | --- | --- | --- | --- | --- |
| CCN1C[C@H](C)C[C@@H](Oc2ccc3c(c2)CN(C2CCC(=O)NC2=O)C3=O)C1 (stereo in doubt; 10) [listing 1 of 2 here] | < 10 | 87 | 26 | < 10 |  |  |  |  | Emax [1]: 84%; Emax [6]: 60%; fold change (FC) [7]: 5; Activity [8]: 40%; Activity [9]: Dose-dependent-effect |
| CCN1C[C@H](Oc2ccc3c(c2)CN(C2CCC(=O)NC2=O)C3=O)CC[C@@H]1C (some centres not stated) | 10 | 88 | 32 | < 10 | > 50 | > 50 | 0.003 | > 50 | Papp A→B at 2 h, 10 µM [10]: 0.3 ×10⁻⁶ cm/s; Emax [1]: 84%; recovery at 2 h, 10 µM [11]: 75%; Cmax [12]: 118 nM; Vd [13]: 4.4 L/kg; fraction unbound [14]: 0.77; DC50 [15]: 0.003 µM; solubility [16]: 480 µM (≈ 185 µg/mL); microsomal CLint [17]: < 25 µL/min/mg; pEC50 [18]: 7.11; fraction unbound [19]: 0.72; fraction unbound [21]: 0.71; microsomal CLint [22]: < 25 µL/min/mg; clearance [23]: 29 mL/min/kg; bioavailability [25]: 8.5%; microsomal CLint [26]: < 25 µL/min/mg; Activity [8]: 36%; AUC(0-t) [29]: 0.377 µM·h; Tmax [30]: 1 h; half-life [31]: 3.2 h |
| CCN1C[C@H](Oc2ccc3c(c2)CN(C2CCC(=O)NC2=O)C3=O)CC[C@H]1C (some centres not stated) | < 10 | 60 | 27 | < 10 | > 50 | > 50 | 0.105 | > 50 |  |
| CCN1CCC2(CC2)[C@@H](Oc2ccc3c(c2)CN(C2CCC(=O)NC2=O)C3=O)C1 (some centres not stated) | < 10 | 82 | 11 | < 10 | > 50 | > 50 | 0.008 | > 50 |  |
| C[C@@H](Oc1ccc2c(c1)CN(C1CCC(=O)NC1=O)C2=O)[C@H]1CCCCN1C (some centres not stated) | < 11 | 93 | 58 | < 11 |  |  |  |  | Papp A→B at 2 h, 10 µM [10]: 0.37 ×10⁻⁶ cm/s; recovery at 2 h, 10 µM [11]: 66%; Cmax [12]: 24 nM; Vd [13]: 2.9 L/kg; fraction unbound [14]: > 0.8; solubility [16]: 640 µM (≈ 247 µg/mL); microsomal CLint [17]: < 25 µL/min/mg; fraction unbound [19]: 0.69; fraction unbound [21]: 0.58; microsomal CLint [22]: < 25 µL/min/mg; clearance [23]: 28 mL/min/kg; bioavailability [25]: 2.7%; Activity [33]: Active; microsomal CLint [26]: < 25 µL/min/mg; AUC(0-t) [29]: 0.115 µM·h; Tmax [30]: 3 h; half-life [31]: 1.9 h; Activity [34]: Active |

Further lines, with some results ahead:

| Activity (Cereblon/Ikaros [2]) [%] | Activity [3] [%] | Activity [4] [%] | Activity [5] [%] | DC50 (Cereblon/Ikaros [20]) [µM] | DC50 [24] [µM] | DC50 [27] [µM] | DC50 [28] [µM] | SMILES | other results |
| --- | --- | --- | --- | --- | --- | --- | --- | --- | --- |
|  |  |  |  |  |  | 0.003 |  | CCN1C[C@H](C)C[C@@H](Oc2ccc3c(c2)CN(C2CCC(=O)NC2=O)C3=O)C1 (stereo in doubt; 10) [listing 2 of 2 here] | Papp A→B at 2 h, 10 µM [10]: 0.5 ×10⁻⁶ cm/s; recovery at 2 h, 10 µM [11]: 84%; Cmax [12]: 224 nM; Vd [13]: 2.8 L/kg; fraction unbound [14]: > 0.8; DC50 [15]: 0.002 µM; solubility [16]: 380 µM (≈ 146 µg/mL); microsomal CLint [17]: < 10 µL/min/mg; pEC50 [18]: 7.40; fraction unbound [19]: 0.76; Activity [32]: Non-toxic; fraction unbound [21]: > 0.8; microsomal CLint [22]: < 10 µL/min/mg; clearance [23]: 29 mL/min/kg; bioavailability [25]: 23%; microsomal CLint [26]: < 10 µL/min/mg; AUC(0-t) [29]: 1.12 µM·h; Tmax [30]: 1.7 h; half-life [31]: 2.2 h |
|  |  |  |  | > 50 | > 50 | 0.013 | > 50 | CCN1C[C@H](C)C[C@@H](Oc2ccc3c(c2)CN(C2CCC(=O)NC2=O)C3=O)C1 (mixture of isomers) [listing 1 of 2 here] |  |
| < 10 | 42 | 32 | < 10 | > 50 | > 50 | > 25 | > 50 | CCN1C[C@@H](C)C[C@@H](Oc2ccc3c(c2)CN(C2CCC(=O)NC2=O)C3=O)C1 (mixture of isomers) |  |
| < 10 | 12 | 27 | < 10 | > 50 | > 50 | > 25 | > 50 | CCN1CCC[C@H](Oc2ccc3c(c2)CN(C2CCC(=O)NC2=O)C3=O)C1 (some centres not stated) |  |
| < 10 | 77 | 28 | < 10 | > 50 | > 50 | 0.026 | > 50 | CCN1CCC[C@@H](Oc2ccc3c(c2)CN(C2CCC(=O)NC2=O)C3=O)C1 (some centres not stated) |  |
| < 10 | 78 | 15 | < 10 |  |  |  |  | CCN1C[C@H](C)C[C@@H](Oc2ccc3c(c2)CN(C2CCC(=O)NC2=O)C3=O)C1 (mixture of isomers) [listing 2 of 2 here] |  |
